Test results from patent US20230293451A1, “STIMULATION OF HAIR GROWTH” (The General Hospital Corporation, priority 2020, published 2023).
Entries after “also recorded” stand apart in the source; their conditions may differ.

What was measured:
[1] = test system: mouse skin with hair follicles arrested in telogen; assay: Topical administration of novel compounds to pre-sensitized mice (Example 2); format: in vivo, C57BL/6 mice; conditions: pre-sensitized with 2% on chest; 2% topical on days 3, 5 and 7; images day 17
From the text: In order to compare the effect of SABDE, CF3-SABDE or CC1-SABDE (see FIG. 2a) on hair growth, 3 female C57BL/6 mice, 8 weeks old, were pre-sensitized with 2% of each compound on the chest 4 days before the first treatment and both flanks were shaved (Day 0). On days 3, 5, and 7, 2% of SABDE, CF3-SABDE or CC1-SABDE was topically administered to the shaved left flank of one mouse each using a cotton-tipped applicator. Images were taken on day 17 in order to visualize hair growth and inflammation (see FIGS. 2B and 2C).

[2] = test system: resting telogen hair follicles; assay: Induction of anagen phase by CF3-SADBE, H&E staining of treated skin (Example 4); format: in vivo, mouse; conditions: 100 uL of 100 mM on left flank; right flank untreated
From the text: (§1) To measure the effect of SABDE and DPCP (see FIG. 1a) on hair growth, 6 female C57BL/6 mice, 8 weeks old, were shaved on both flanks 4 days before topical administration of the compounds (Day −4). During this period, the mice were visually monitored to confirm absence of hair growth and to confirm the entire shaved area is arrested in the telogen phase as expected from 8 weeks old mice. On the day of administration (day 0), 2% SABDE or 2% DCPC was topically administered to the shaved left flank of 3 mice each using a cotton-tipped applicator (see FIG. 1B). Images were taken on day 9 and day 16 in order to visualize hair growth and inflammation (see FIG. 1c). Skin pigmentation intensity was quantified by ImageJ. The anagen induction index is calculated as the change in skin pigmentation intensity (a marker of anagen) on the treated side relative to (i.e., as a percent of) the untreated side (see FIG. 1d).
The effects of a topical treatment dose of CF3-SADBE was measured and visualized using the methods described in Example 1. The gross appearance of the mouse treated with CF3-SADBE was imaged (see FIG. 4a). CF3-SADBE was administered on the left flank at a dose of 100 uL of 100 mM CF3-SADBE (see FIG. 4B). The right flank was left untreated (see FIG. 4C).

[3] = test system: mouse skin with hair follicles arrested in telogen; assay: Comparison of 100 mM SADBE and CF3-SADBE topical treatment (Examples 3 and 5); format: in vivo, C57BL/6 mice; conditions: 100 mM topical; for visible anagen: by day 10; for anagen induction / visible inflammation: by day 14; for hair growth on the treated flank: by day 17
From the text: as §1
(§2) The anagen induction index can be determined by any methods known in the art, including, for example, histological methods (e.g., H&E, other stains, or without stains) and/or other visual morphology methods. (e.g., methods to measure the biological parameters of hair growth. This value is then normalized to the specific experiment (individual mice) and shown as relative anagen induction by skin pigmentation intensity (a marker of anagen) on the treated side as a percent of the baseline untreated side. Analysis of the anagen (or other phases) can be performed by any method known in the art, including, e.g., a tissue biopsy and/or morphological analysis.
(§3) Inflammation can be measured by known methods such as histological grading, visual identification, and quantification of lesions. The number, size, and extent of the cutaneous lesions present (e.g., see blue * in FIG. 3a) can be visualized and quantified using any known method in the art, including, for example, histological methods (e.g., H&E, other stains, or without stains) and/or other visual morphology methods.
The effects of a topical treatment dose of SADBE or CF3-SADBE were measured using the methods describe in Example 1. In FIG. 3, the topical treatment dose used was 50 uL of 100 mM SADBE or CF3-SADBE.
The effects on anagen induction and inflammation of topical treatment with CF3-SADBE at 100 mM were measured and visualized using the methods described in Example 1.

[4] = test system: hair growth in shaved mice; assay: Hair growth in animal models after topical delivery of hapten derivatives (general statements); format: in vivo
[5] = test system: mouse skin with hair follicles arrested in telogen; assay: Topical administration of SADBE and DPCP to shaved flank of mice (Example 1); format: in vivo, C57BL/6 mice; conditions: for induction of anagen and hair growth: 2% topical, single administration day 0 to shaved left flank, images day 9 and day 16; for hair growth in a mammal without an autoimmune disease: mouse, in vivo
From the text: as §1, §2, §3

Compound | anagen and hair growth [1] | inflammation [1] | hair follicle phase in treated skin (H&E staining) [2] | visible anagen [3] | anagen induction [3] | visible inflammation [3] | hair growth on the treated flank [3] | efficacy as measured by time of anagen induction [4] | inflammation relative to known treatments [4] | hair growth promoting activity ([4]; animal models, after prior shaving) | induction of anagen and hair growth [5] | hair growth in a mammal without an autoimmune disease [5]
O=c1c(OCCCCCl)c(OCCCCCl)c1=O [CC1-SABDE] | neither produced inflammation nor anagen and hair growth | neither produced inflammation nor anagen and hair growth | – | – | – | – | – | – | – | – | – | –
O=c1c(OCCCC(F)(F)F)c(OCCCC(F)(F)F)c1=O [CF3-SADBE, squaric acid di(trifluromethyl)propyl ester] | induce anagen and hair growth at least as efficiently as SADBE | less inflammation | hair follicles in anagen | induced visible anagen | induces anagen | much less visible inflammation | Robust hair growth | earlier induction of anagen | less inflammation than known treatments; also recorded: somewhat diminished inflammation | accelerated hair growth relative to known treatments | – | –
O=c1c(-c2ccccc2)c1-c1ccccc1 [DPCP, diphenylcyclopropenone] | – | – | – | – | – | – | – | – | – | – | induction of anagen and hair growth | increased hair growth
CCCCOc1c(OCCCC)c(=O)c1=O [SADBE] | – | inflammation in the SADBE treated flank | – | does not; also recorded: did not induce visible anagen | induces anagen | substantial inflammation; also recorded: more visible inflammation | Robust hair growth | – | – | – | induction of anagen and hair growth | increased (e.g., promoted) hair growth
